Source: US12552800B2, “Compounds for diagnosis” (AC IMMUNE SA, priority 2020, dated 2026)

Assays:
[1] = target: T1, PD brain-derived a-syn aggregates (Homo sapiens, UniProt P37840); assay: Micro-radiobinding competition assay against Example-1 [^3H-1] (Table 8); assay type: binding; conditions: for Competition at 100 nM (%): 100 nM non-radiolabelled example compound vs Example-1 [^3H-1] ligand; for Competition at 100 nM (%) / Competition at 1 μM (%): human PD brain-derived a-syn aggregates; for Competition at 1 μM (%): 1 μM non-radiolabelled example compound vs Example-1 [^3H-1] ligand
T1 construct: from tissue; host or cells: human PD donor brain, sarkosyl-insoluble 100,000 x g pellet
Procedure: PD brain-derived a-syn aggregates were spotted onto microarray slides. The slides were incubated with the Example-1 [^3H-1] at 6 nM or 20 nM and the example compounds (non-radiolabelled) at 1 μM and 100 nM. In some cases, the non-radiolabelled example compounds were further assessed for a range of different concentrations, varying from 0.05 nM to 2 μM. After incubation, slides were washed and scanned by a real-time autoradiography system (BeaQuant, ai4R). Quantification of the signal was performed by using the Beamage image analysis software (ai4R). […] All measurements were performed with at least two technical replicates. For compounds tested in more than one experiment, the mean of the replicates or K; values in independent experiments is reported.
Results: Example compounds were assessed for their potency to compete with the binding of Example-1 [^3H-1] ligand to PD patient brain-derived a-syn aggregates. Results of the micro-radiobinding competition assay for the example compounds tested are shown in Table 8 as: % competition at 1 μM and 100 nM.

[2] = target: T1, PD brain-derived a-syn aggregates; assay: as above; assay type: binding; conditions: competition over Example-1 [^3H-1]

Row | Compound | Competition at 100 nM (%) [1] | Competition at 1 μM (%) [1] | Ki [2] | Ki ([1]; mean of Ki values in independent experiments using PD brain-derived homogenates from two different donors)
1 | O=C1c2cn(-c3ccc(N4CCC[C@@H](F)C4)nc3)nc2CN1c1cccnc1 [Example 40] | 50% | 77% | 49 nM | 
2 | O=C1c2cn(-c3ccc(N4CC(F)C4)nc3)nc2CN1c1cccnc1 [Example 48] | 42% | 77% | 132 nM | 
3 | O=C1c2cn(-c3ccc(N4CC[C@H](F)C4)nc3)nc2CN1c1ccccn1 [Example 6] | 87% | 98% | 19 nM | 
4 | COc1ccc(-n2cc3c(n2)CN(c2cncc(F)n2)C3=O)cn1 [Example 147] | 72% | 86% |  | 
5 | Cn1cc(-n2cc3c(n2)CN(c2cncc(F)n2)C3=O)cn1 [Example 149] |  | 53% |  | 
6 | N#Cc1cc(N2Cc3nn(-c4ccc(N5CC[C@H](F)C5)nc4)cc3C2=O)ccc1N [Example 22] |  | 72% |  | 
7 | O=C1c2cn(-c3ccc(N4CC[C@@H](F)C4)nc3)nc2CN1c1cccc(F)c1 [Example 68] | 63% |  |  | 
8 | Cc1c2c(nn1-c1ccc(N3CC[C@H](F)C3)nc1)CN(c1ccncc1)C2=O [Example 93] | 12% | 47% |  | 
9 | O=C1c2cn(-c3ccc(N4CC[C@H](F)C4)nc3)nc2CN1c1cccc(F)c1 [Example 70] | 65% |  |  | 
10 | O=C1c2cn(-c3ccc(N4CC[C@@H](F)C4)nc3)nc2CN1c1ccccc1O [Example 175] | 32% | 65% |  | 
11 | Cc1c2c(nn1-c1ccc(N3CC[C@@H](F)C3)nc1)CN(c1cccnc1)C2=O [Example 52] | 26% | 29% |  | 
12 | Cc1c2c(nn1-c1ccc(N3CCCC3)nc1)CN(c1cncc(F)n1)C2=O [Example 146] | 32% | 53% |  | 
13 | O=C1c2cn(-c3ccc(NC4CC(F)C4)nc3)nc2CN1c1ccccn1 (stereo not drawn) [Example 89] | 29% | 75% |  | 
14 | Cc1ccc(N2Cc3nn(-c4ccc(N5CC[C@H](F)C5)nc4)cc3C2=O)cc1 [Example 35] | 73% |  |  | 
15 | COc1cccc(N2Cc3nn(-c4ccc(N5CC[C@@H](F)C5)nc4)cc3C2=O)n1 [Example 74] | 22% | 39% |  | 
16 | N#Cc1ccc(N2Cc3nn(-c4ccc(N5CC[C@H](F)C5)nc4)cc3C2=O)cc1N [Example 21] |  | 84% |  | 
17 | N#Cc1ccc(-n2cc3c(n2)CN(c2cccc(F)n2)C3=O)cn1 [Example 156] | 80% | 85% |  | 

Row | Compound | Competition at 100 nM (%) [1] | Competition at 1 μM (%) [1] | Ki [2] | Ki ([1]; mean of Ki values in independent experiments using PD brain-derived homogenates from two different donors)
18 | COc1ccnc(N2Cc3nn(-c4ccc(N5CC[C@H](F)C5)nc4)cc3C2=O)c1 [Example 77] | 95% | 94% |  | 
19 | O=C1c2cn(-c3ccc(N4CCCC4)nc3)nc2CN1c1cc(F)ccn1 [Example 100] | 78% |  |  | 
20 | O=C1c2cn(-c3ccc(C4CCCC4)nc3)nc2CN1c1cncc(F)n1 [Example 161] | 42% | 65% |  | 
21 | O=C1c2cn(-c3ccc(F)cn3)nc2CN1c1cccnc1 [Example 138] | 32% | 57% |  | 
22 | O=C1c2cn(-c3ccc(N4CC[C@H](F)C4)cn3)nc2CN1c1cccnc1 [Example 72] | 45% | 79% |  | 
23 | N#Cc1cc(N2Cc3nn(-c4ccc(N5CC[C@@H](F)C5)nc4)cc3C2=O)ccn1 [Example 114] | 92% | 99% |  | 
24 | COc1ccc(N2Cc3nn(-c4ccc(N5CC[C@@H](F)C5)nc4)cc3C2=O)cn1 [Example 8] | 67% | 91% |  | 
25 | Cl.O=C1c2cn(-c3ccc(N4CCCC4)nc3)nc2CN1c1ccc(F)nc1 [Example 49] | 48% | 84% |  | 
26 | COc1ccc(-n2cc3c(n2)CN(c2cccc(F)n2)C3=O)cn1 [Example 159] | 46% | 67% |  | 
27 | O=C1c2cn(-c3ccc(N4CCCC4)nc3)nc2CN1c1ncccc1F [Example 103] | 41% | 70% |  | 
28 | O=C1c2cn(-c3ccc(C4CCCC4)nc3)nc2CN1c1cccc(F)n1 [Example 154] | 81% | 99% |  | 
29 | O=C1c2cn(-c3ccc(N4CC[C@H](F)C4)nc3)nc2CN1c1ccccc1O [Example 176] | 13% | 54% |  | 
30 | COc1cc(N2Cc3nn(-c4ccc(N5CC[C@@H](F)C5)nc4)cc3C2=O)ccn1 [Example 107] | 92% | 100% |  | 
31 | O=C1c2cn(-c3ccc(N4CCCC4)nc3)nc2CN1c1cccnc1F [Example 39] | 43% | 66% |  | 
32 | O=C1c2cn(-c3ccc(N4CC[C@@H](F)C4)cn3)nc2CN1c1cccnc1 [Example 66] | 72% | 92% |  | 
33 | Nc1cc(N2Cc3nn(-c4ccc(N5CCCC5)nc4)cc3C2=O)ccc1F [Example 44] | 90% |  |  | 

Now from value to compound:

Row | Competition at 100 nM (%) [1] | Competition at 1 μM (%) [1] | Ki [2] | Ki ([1]; mean of Ki values in independent experiments using PD brain-derived homogenates from two different donors) | Compound
34 | 49% | 99% | 67 nM |  | O=C1c2cn(-c3ccc(N4CC[C@H](F)C4)nc3)nc2CN1c1cccc(O)n1 [Example 163]
35 | 73% | 96% | 45 nM |  | O=C1c2cn(-c3ccc(N4CC[C@H](F)C4)nc3)nc2CN1c1ncccc1O [Example 169]
36 | 56% | 90% | 118 nM |  | O=C1c2cn(-c3ccc(N4CC[C@@H](F)C4)nc3)nc2CN1c1ccc(O)nc1 [Example 81]
37 | 51% | 83% | 56 nM |  | Cc1ccnc(N2Cc3nn(-c4ccc(N5CC[C@@H](F)C5)nc4)cc3C2=O)c1 [Example 80]
38 | 33% | 84% | 84 nM |  | COc1cncc(N2Cc3nn(-c4ccc(N5CC[C@@H](F)C5)nc4)cc3C2=O)c1 [Example 97]
39 | 75% | 83% |  |  | O=C1c2cn(-c3ccc(N4CC[C@@H](F)C4)nc3)nc2CN1c1cncs1 [Example 126]
40 | 30% | 36% |  |  | O=C1c2cn(-c3ccc(N4CC[C@H](F)C4)nc3)nc2CN1c1cccnc1O [Example 168]
41 | 34% | 61% |  |  | Cc1cnccc1N1Cc2nn(-c3ccc(N4CC[C@@H](F)C4)nc3)cc2C1=O [Example 122]
42 | 46% | 64% |  |  | O=C1c2cn(-c3ccc(N4CC[C@@H](F)C4)nc3)nc2CN1c1ccncc1O [Example 174]
43 | 91% |  |  |  | N#Cc1ccc(N2Cc3nn(-c4ccc(N5CC[C@H](F)C5)nc4)cc3C2=O)cn1 [Example 29]
44 | 61% | 94% |  |  | Cn1ccc(N2Cc3nn(-c4ccc(N5CC[C@H](F)C5)nc4)cc3C2=O)n1 [Example 118]
45 | 50% | 98% |  |  | Cc1ccc(N2Cc3nn(-c4ccc(N5CC[C@H](F)C5)nc4)cc3C2=O)cn1 [Example 11]
46 | 44% | 85% |  |  | O=C1c2cn(-c3ccc(N4CC[C@H](F)C4)nc3)nc2CN1c1ccnc(O)c1 [Example 172]
47 | 58% | 90% |  | 61 nM | Cc1ccc(N2Cc3nn(-c4ccc(N5CC[C@@H](F)C5)nc4)cc3C2=O)cn1 [Example 10]
48 | 45% | 83% |  |  | Cn1cc(N2Cc3nn(-c4ccc(N5CCC[C@@H](F)C5)nc4)cc3C2=O)cn1 [Example 120]
49 | 65% | 102% |  |  | O=C1c2cn(-c3ccc(N4CC[C@H](F)C4)nc3)nc2CN1c1cc(O)ccn1 [Example 170]
50 | 17% | 67% |  |  | CC(C)n1cc(N2Cc3nn(-c4ccc(N5CC[C@@H](F)C5)nc4)cc3C2=O)cn1 [Example 117]
51 | 47% | 88% |  |  | O=C1c2cn(-c3ccc(N4CCC[C@H](F)C4)nc3)nc2CN1c1cccnc1 [Example 43]
52 | 74% |  |  |  | O=C1c2cn(-c3ccc(N4CC[C@@H](F)C4)nc3)nc2CN1c1nccs1 [Example 134]
53 |  | 25% |  |  | Cc1ncccc1N1Cc2nn(-c3ccc(N4CC[C@@H](F)C4)nc3)cc2C1=O [Example 12]
54 | 35% | 84% |  |  | O=C1c2cn(-c3ccc(N4CC[C@@H](F)C4)nc3)nc2CN1c1ncco1 [Example 137]
55 | 55% | 85% |  |  | O=C1c2cn(-c3ccc(N4CC[C@H](F)C4)nc3)nc2CN1c1cncs1 [Example 128]
56 | 84% |  |  |  | Cc1ccnc(N2Cc3nn(-c4ccc(N5CC[C@H](F)C5)nc4)cc3C2=O)c1 [Example 82]
57 | 39% | 86% |  |  | O=C1c2cn(-c3ccc(N4CC[C@@H](F)C4)nc3)nc2CN1c1cccnn1 [Example 152]
